From patent publication US20230159532A1, “PARATHYROID HORMONE (PTH) RECEPTOR ANTAGONISTS AND USES THEREOF” (Crinetics Pharmaceuticals, Inc., priority 2021, published 2023) come the findings set out here.

Some results are limits rather than exact numbers.

The assay has as its target T1, human PTHR1 receptor (Homo sapiens, UniProt Q03431).
T1 construct: purchased Eurofins HTS030M
T1 sequence (Q03431 27-593): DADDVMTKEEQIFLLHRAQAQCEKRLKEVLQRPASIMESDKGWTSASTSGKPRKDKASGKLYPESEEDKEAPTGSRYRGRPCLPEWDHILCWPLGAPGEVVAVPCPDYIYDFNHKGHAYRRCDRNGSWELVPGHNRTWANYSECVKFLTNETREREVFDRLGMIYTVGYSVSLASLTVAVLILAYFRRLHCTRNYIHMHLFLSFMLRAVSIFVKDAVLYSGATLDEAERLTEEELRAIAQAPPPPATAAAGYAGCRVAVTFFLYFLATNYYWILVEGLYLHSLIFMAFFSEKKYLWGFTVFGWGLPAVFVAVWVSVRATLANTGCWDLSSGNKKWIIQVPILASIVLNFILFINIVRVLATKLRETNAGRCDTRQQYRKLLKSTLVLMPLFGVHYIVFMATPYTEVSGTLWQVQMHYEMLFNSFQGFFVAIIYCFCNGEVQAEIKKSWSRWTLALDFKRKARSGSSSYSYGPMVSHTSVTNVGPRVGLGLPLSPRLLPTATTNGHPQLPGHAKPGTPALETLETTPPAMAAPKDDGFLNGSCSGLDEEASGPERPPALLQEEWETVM
The assay can be described thus: Competitive antagonist binding assay for hPTH-R1 (radioactive competition binding, SPA beads). Particulars: human PTHR1 membranes, [125I]-[Nle8,18,Tyr34]-PTH(1-34) 0.2 nM, 90 minutes at room temperature; read-out: hPTHR1 Ki. The gist of the method: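 Displacement of 0.2 nM radioiodinated [Nle8,18,Tyr34]-PTH(1-34) from membrane-bound human PTHR1 measured by scintillation proximity after 90 min at room temperature. Compounds typically 0-10,000 nM final, pH 7.4 HEPES/Mg/Ca buffer with BSA and detergent. Ki calculated from competition data.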

In the case of `CCN1C(=O)N(c2c(F)cc(NCCNCCOCCO)cc2F)c2cc(C#N)ccc2-c2cc(Cl)cnc21` [1-181, 4-chloro-10-{2,6-difluoro-4-[(2-{[2-(2-hydroxyethoxy)ethyl]amino}ethyl)amino]phenyl}-8-ethyl-9-oxo-6,8,10-triazatricyclo[9.4.0.0^2,7]pentadeca-1(11),2(7),3,5,12,14-hexaene-13-carbonitrile], the inhibition constant (Ki) was less than 100 nM.
As to `CCN1C(=O)N(c2c(F)cc(NCCN[C@H]3C[C@H](O)C3)cc2F)c2cc(C#N)ccc2-c2cc(Cl)cnc21` [1-187, 4-chloro-10-{2,6-difluoro-4-[(2-{[(1r,3r)-3-hydroxycyclobutyl]amino}ethyl)amino]phenyl}-8-ethyl-9-oxo-6,8,10-triazatricyclo[9.4.0.0^2,7]pentadeca-1(11),2(7),3,5,12,14-hexaene-13-carbonitrile], the inhibition constant Ki is less than 100 nM.
For the compound `CC(C)N1C(=O)N(c2c(F)cc(NCCNCCCC(=O)O)cc2F)c2cc(C#N)ccc2-c2cc(F)cnc21` [1-86, 4-{[2-({4-[13-cyano-4-fluoro-9-oxo-8-(propan-2-yl)-6,8,10-triazatricyclo[9.4.0.0^2,7]pentadeca-1(11),2(7),3,5,12,14-hexaen-10-yl]-3,5-difluorophenyl}amino)ethyl]amino}butanoic acid], the Ki is less than 100 nM.
The result for `CCN1C(=O)N(c2c(F)cc(NCCNC)cc2F)c2cc(Cl)ccc2-c2c1ncc(Cl)c2C` [3-5, 4,13-dichloro-10-(2,6-difluoro-4-{[2-(methylamino)ethyl]amino}phenyl)-8-ethyl-3-methyl-6,8,10-triazatricyclo[9.4.0.0^2,7]pentadeca-1(11),2(7),3,5,12,14-hexaen-9-one] reads less than 100 nM; that for `CCN1C(=O)N(c2c(F)cc(NCCN(C)CCO)cc2F)c2cc(Cl)ccc2-c2cc(Cl)cnc21` [1-73, 4,13-dichloro-10-[2,6-difluoro-4-({2-[(2-hydroxyethyl)(methyl)amino]ethyl}amino)phenyl]-8-ethyl-6,8,10-triazatricyclo[9.4.0.0^2,7]pentadeca-1(11),2(7),3,5,12,14-hexaen-9-one], less than 100 nM; that for `CCN1C(=O)N(c2c(F)cc(NCCN[C@H]3C[C@@H](O)C3)cc2F)c2cc(C#N)ccc2-c2cc(Cl)cnc21` [1-192, 4-chloro-10-{2,6-difluoro-4-[(2-{1[(1s,3s)-3-hydroxycyclobutyl]amino}ethyl)amino]phenyl}-8-ethyl-9-oxo-6,8,10-triazatricyclo[9.4.0.0^2,7]pentadeca-1(11),2(7),3,5,12,14-hexaene-13-carbonitrile], less than 100 nM.
Next, `CCN1C(=O)N(c2c(F)cc(NCCNCCO)cc2F)c2cc(C(F)(F)F)ccc2-c2cc(F)cnc21` [1-67, 10-[2,6-difluoro-4-({2-[(2-hydroxyethyl)amino]ethyl}amino)phenyl]-8-ethyl-4-fluoro-13-(trifluoromethyl)-6,8,10-triazatricyclo[9.4.0.0^2,7]pentadeca-1(11),2(7),3,5,12,14-hexaen-9-one]: less than 100 nM; `CCN1C(=O)N(c2c(F)cc(NCCN3CCNCC3)cc2F)c2cc(C#N)ccc2-c2cc(Cl)cnc21` [1-155, 4-chloro-10-(2,6-difluoro-4-{[2-(piperazin-1-yl)ethyl]amino}phenyl)-8-ethyl-9-oxo-6,8,10-triazatricyclo[9.4.0.0^2,7]pentadeca-1(11),2(7),3,5,12,14-hexaene-13-carbonitrile]: less than 100 nM.
`CCN1C(=O)N(c2c(F)cc(N3CC[C@H](N)C3)cc2F)c2cc(C#N)ccc2-c2cc(Cl)cnc21` [1-241, 10-{4-[(3 S)-3-aminopyrrolidin-1-yl]-2,6-difluorophenyl}-4-chloro-8-ethyl-9-oxo-6,8,10-triazatricyclo[9.4.0.0^2,7]pentadeca-1(11),2(7),3,5,12,14-hexaene-13-carbonitrile]: the Ki was less than 100 nM.
The result for `Cc1cc(Cl)cc2c1-c1cc(F)cnc1N(C)C(=O)N2c1c(F)cc(NCCNCCO)cc1F` [1-76, 13-chloro-10-[2,6-difluoro-4-({2-[(2-hydroxyethyl)amino]ethyl}amino)phenyl]-4-fluoro-8,15-dimethyl-6,8,10-triazatricyclo[9.4.0.0^2,7]pentadeca-1(11),2(7),3,5,12,14-hexaen-9-one] reads less than 100 nM; that for `CC(C)N1C(=O)N(c2c(F)cc(N3CC[C@@H](N)C3)cc2F)c2cc(C#N)cc(F)c2-c2cc(F)cnc21` [1-212, 10-{4-[(3R)-3-aminopyrrolidin-1-yl]-2,6-difluorophenyl}-4,15-difluoro-9-oxo-8-(propan-2-yl)-6,8,10-triazatricyclo[9.4.0.0^2,7]pentadeca-1(15),2(7),3,5,11,13-hexaene-13-carbonitrile], less than 100 nM; that for `CCN1C(=O)N(c2c(F)cc(NCCNCCCC(=O)O)cc2F)c2cc(Cl)cc(C)c2-c2cc(F)cnc21` [1-64, 4-({2-[(4-{13-chloro-8-ethyl-4-fluoro-15-methyl-9-oxo-6,8,10-triazatricyclo[9.4.0.0^2,7]pentadeca-1(11),2(7),3,5,12,14-hexaen-10-yl}-3,5-difluorophenyl)amino]ethyl}amino)butanoic acid], less than 100 nM.
The result for `CCN1C(=O)N(c2c(F)cc(NCCNC[C@@H](O)CO)cc2F)c2cc(C#N)ccc2-c2cc(F)cnc21` [1-194, 10-{4-[(2-{[(2R)-2,3-dihydroxypropyl]amino}ethyl)amino]-2,6-difluorophenyl}-8-ethyl-4-fluoro-9-oxo-6,8,10-triazatricyclo[9.4.0.0^2,7]pentadeca-1(11),2(7),3,5,12,14-hexaene-13-carbonitrile] reads less than 100 nM; that for `CCN1C(=O)N(c2c(F)cc(NCCNCCCC(=O)O)cc2F)c2cc(Cl)ccc2-c2cccnc21` [1-6, 4-({2-[(4-{13-chloro-8-ethyl-9-oxo-6,8,10-triazatricyclo[9.4.0.0^2,7]pentadeca-1(11),2(7),3,5,12,14-hexaen-10-yl}-3,5-difluorophenyl)amino]ethyl}amino)butanoic acid], less than 100 nM; that for `CCN1C(=O)N(c2c(F)cc(NCCNC)cc2F)c2cc(C#N)cc(F)c2-c2cc(Cl)cnc21` [1-99, 4-chloro-10-(2,6-difluoro-4-{[2-(methylamino)ethyl]amino}phenyl)-8-ethyl-15-fluoro-9-oxo-6,8,10-triazatricyclo[9.4.0.0^2,7]pentadeca-1(11),2(7),3,5,12,14-hexaene-13-carbonitrile], less than 100 nM.
With “[2-({2-[(4-{13-cyano-8-ethyl-4-fluoro-9-oxo-6,8,10-triazatricyclo[9.4.0.0^2,7]pentadeca-1(11),2(7),3,5,12,14-hexaen-10-yl}-3,5-difluorophenyl)amino]ethyl}amino)ethyl]urea [1-169]”, the Ki is less than 100 nM.
Next, `CCN1C(=O)N(c2c(F)cc(NCCN[C@@H]3CC[C@H]3O)cc2F)c2cc(C#N)ccc2-c2cc(C(F)(F)F)cnc21` [1-196, 10-{2,6-difluoro-4-[(2-{[(1R,2R)-2-hydroxycyclobutyl]amino}ethyl)amino]phenyl}-8-ethyl-9-oxo-4-(trifluoromethyl)-6,8,10-triazatricyclo[9.4.0.0^2,7]pentadeca-1(11),2(7),3,5,12,14-hexaene-13-carbonitrile]: less than 100 nM; `CNCCNc1ccc(N2C(=O)N(C)c3ncccc3-c3ccc(Cl)cc32)cc1` [2-1, 13-chloro-8-methyl-10-(4-{[2-(methylamino)ethyl]amino}phenyl)-6,8,10-triazatricyclo[9.4.0.0^2,7]pentadeca-1(11),2(7),3,5,12,14-hexaen-9-one]: 100 to 1000 nM; `CNCCNc1cc(F)c(N2C(=O)N(C)c3ncc(F)cc3-c3c(C)cc(Cl)cc32)c(F)c1` [1-75, 13-chloro-10-(2,6-difluoro-4-{[2-(methylamino)ethyl]amino}phenyl)-4-fluoro-8,15-dimethyl-6,8,10-triazatricyclo[9.4.0.0^2,7]pentadeca-1(11),2(7),3,5,12,14-hexaen-9-one]: less than 100 nM.
`CCN1C(=O)N(c2c(F)cc(NCCN)cc2F)c2cc(Cl)ccc2-c2cc(C)cnc21` [1-22, 10-{4-[(2-aminoethyl)amino]-2,6-difluorophenyl}-13-chloro-8-ethyl-4-methyl-6,8,10-triazatricyclo[9.4.0.0^2,7]pentadeca-1(11),2(7),3,5,12,14-hexaen-9-one]: the Ki is less than 100 nM.
As to `CNCCNc1cc(F)c(N2C(=O)N(C)c3ncccc3-c3ccc(Cl)cc32)c(F)c1` [1-1, 13-chloro-10-(2,6-difluoro-4-{[2-(methylamino)ethyl]amino}phenyl)-8-methyl-6,8,10-triazatricyclo[9.4.0.0^2,7]pentadeca-1(11),2(7),3,5,12,14-hexaen-9-one], the Ki is less than 100 nM.
Next, `CCN1C(=O)N(c2c(F)cc(NCCNCCNC(=O)NC)cc2F)c2cc(C#N)ccc2-c2cc(Cl)cnc21` [1-166, 1-[2-({2-[(4-{4-chloro-13-cyano-8-ethyl-9-oxo-6,8,10-triazatricyclo[9.4.0.0^2,7]pentadeca-1(11),2(7),3,5,12,14-hexaen-10-yl}-3,5-difluorophenyl)amino]ethyl}amino)ethyl]-3-methylurea]: less than 100 nM.
